In one series the target is GLP-1R (Homo sapiens, UniProt P43220). Description: GLP-1R activation: cAMP increase in CHO cells stably expressing GLP-1R. The class given is cell-based.
A short description of series [1]: Microsomal stability, human liver microsomes (predicted hepatic clearance). As to conditions: predicted from in vitro microsomal stability data.
Setting [2] is: cAMP increase, CHO cells stably expressing GLP-1R, 10 point dose response, 30 minutes incubation, read-out: EC50.

Read-outs that look alike come from different tables or passages of the source.

We go through 17 molecules from patent US11702404B2, “GLP-1R modulating compounds” (priority 2019, dated 2023).

Chain of GLP-1R (P43220 24-463): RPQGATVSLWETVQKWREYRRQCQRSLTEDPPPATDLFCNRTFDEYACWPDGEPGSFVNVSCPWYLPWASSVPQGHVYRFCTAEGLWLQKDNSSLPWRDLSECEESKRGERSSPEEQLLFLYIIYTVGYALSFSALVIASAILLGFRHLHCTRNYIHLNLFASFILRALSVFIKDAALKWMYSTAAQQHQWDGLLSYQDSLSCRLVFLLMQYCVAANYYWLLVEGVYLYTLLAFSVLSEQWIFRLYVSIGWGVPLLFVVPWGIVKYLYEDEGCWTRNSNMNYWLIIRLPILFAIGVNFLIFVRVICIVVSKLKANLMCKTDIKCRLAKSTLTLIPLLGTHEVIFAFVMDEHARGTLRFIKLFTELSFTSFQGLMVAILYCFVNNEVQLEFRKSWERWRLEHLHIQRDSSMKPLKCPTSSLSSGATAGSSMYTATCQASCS

As usually defined, the EC50 is the concentration that produces a half-maximal response. For the molecule `COC(CNC(C)=O)Cn1c(Cc2ccc(-c3cccc(OCc4ccc(C#N)cc4F)n3)cc2F)nc2ccc(C(=O)O)cc21` (single isomer, unassigned) [Example 342, 1-(3-acetamido-2-methoxypropyl)-2-(4-(6-((4-cyano-2-fluorobenzyl)oxy)pyridin-2-yl)-2-fluorobenzyl)-1H-benzo[d]imidazole-6-carboxylic acid], the EC50 on GLP-1R (setting [2]) worked out at 3360 nM. For the same molecule, the “Predicted Hepatic Clearance (Pred. Cl.)” value in series [1] is 4 mL/min/kg.
The corresponding values for `COCCn1c(C(C)c2ccc(-c3cccc(OCc4ccc(C#N)cc4F)n3)cc2)nc2ccc(C(=O)O)cc21` (single isomer, unassigned) [Example 418, 2-(1-(4-(6-((4-cyano-2-fluorobenzyl)oxy)pyridin-2-yl)phenyl)ethyl)-1-(2-methoxyethyl)-1H-benzo[d]imidazole-6-carboxylic acid] are 18.3 nM and 4.83 mL/min/kg.
With `CC(=O)N1CC[C@@H]1Cn1c(Cc2cc(F)c(-c3cccc(OCc4ccc(C#N)cc4F)n3)cc2F)nc2ccc(C(=O)O)cc21` (single isomer, unassigned) [Example 689], the EC50 on GLP-1R (read-out: EC50) was found to be 0.56 nM. Besides, the “Predicted Hepatic Clearance (Pred. Cl.)” value in series [1] was 5.17 mL/min/kg.
For `N#Cc1ccc(COc2cccc(-c3cc(F)c(Cc4nc5ccc(C(=O)O)cc5n4C[C@@H]4CCO4)cc3F)n2)c(F)c1` (single isomer, unassigned) [Example 757], at GLP-1R (setting [2]), the EC50 was 0.03 nM. In addition, the “Predicted Hepatic Clearance (Pred. Cl.)” value in series [1] was 4.33 mL/min/kg.
For `CO[C@H]1COC[C@H]1n1c(Cc2cc(F)c(-c3cccc(OCc4ccc(C#N)cc4F)n3)cc2F)nc2ccc(C(=O)O)cc21` (single isomer, unassigned) [Example 890, 2-(4-(6-((4-cyano-2-fluorobenzyl)oxy)pyridin-2-yl)-2,5-difluorobenzyl)-1-(cis-4-methoxytetrahydrofuran-3-yl)-1H-benzo[d]imidazole-6-carboxylic acid], the EC50 on GLP-1R (setting [2]) stood at 0.49 nM. The “Predicted Hepatic Clearance (Pred. Cl.)” value in series [1] is 5.17 mL/min/kg.
The corresponding values for `CO[C@H]1COC[C@H]1n1c(Cc2cc(F)c(-c3cccc(OCc4ccc(C#N)cc4F)n3)cc2F)nc2ccc(C(=O)O)cc21` (single isomer, unassigned) [Example 891, 2-(4-(6-((4-cyano-2-fluorobenzyl)oxy)pyridin-2-yl)-2,5-difluorobenzyl)-1-(cis-4-methoxytetrahydrofuran-3-yl)-1H-benzo[d]imidazole-6-carboxylic acid] are 0.25 nM and 6.67 mL/min/kg.
Regarding `CC1(C)CC(Cn2c(Cc3ccc(-c4cccc(OCc5ccc(C#N)cc5F)n4)cc3F)nc3ccc(C(=O)O)cc32)O1` (single isomer, unassigned) [Example 904, 2-(4-(6-((4-cyano-2-fluorobenzyl)oxy)pyridin-2-yl)-2-fluorobenzyl)-1-((4,4-dimethyloxetan-2-yl)methyl)-1H-benzo[d]imidazole-6-carboxylic acid], on GLP-1R (setting [2]), the half-maximal effective concentration (EC50) is 311 nM. In series [1], the “Predicted Hepatic Clearance (Pred. Cl.)” value was 11.2 mL/min/kg.
On to `CC1(C)CC(Cn2c(Cc3ccc(-c4cccc(OCc5ccc(C#N)cc5F)n4)cc3F)nc3ccc(C(=O)O)cc32)O1` (single isomer, unassigned) [Example 905, 2-(4-(6-((4-cyano-2-fluorobenzyl)oxy)pyridin-2-yl)-2-fluorobenzyl)-1-((4,4-dimethyloxetan-2-yl)methyl)-1H-benzo[d]imidazole-6-carboxylic acid], for which the EC50 on GLP-1R (setting [2]) came to 30.9 nM. Further, the “Predicted Hepatic Clearance (Pred. Cl.)” value in series [1] was 4.33 mL/min/kg.
In the case of `COCCn1c(Cc2ccc(-c3cccc(OCc4ccc(C#N)cc4F)n3)cc2)nc2ccc(C(=O)O)cc21` [Example 1, 2-(4-(6-((4-Cyano-2-fluorobenzyl)oxy)pyridin-2-yl)benzyl)-1-(2-methoxyethyl)-1H-benzo[d]imidazole-6-carboxylic acid], on GLP-1R (setting [2]), the EC50 came out at 25.4 nM. Further, in series [1], the “Predicted Hepatic Clearance (Pred. Cl.)” value is 3.3 mL/min/kg.
For the molecule `COCCn1c(Cc2ccc(-c3cccc(OCc4ccc(C#N)cc4F)n3)cc2F)nc2ccc(C(=O)O)cc21` [Example 2, 2-(4-(6-((4-cyano-2-fluorobenzyl)oxy)pyridin-2-yl)-2-fluorobenzyl)-1-(2-methoxyethyl)-1H-benzo[d]imidazole-6-carboxylic acid], on GLP-1R (setting [2]), the EC50 came out at 2.3 nM. For the same molecule, the “Predicted Hepatic Clearance (Pred. Cl.)” value in series [1] was 2.33 mL/min/kg.
`COCCn1c(Cc2ccc(-c3cccc(OCc4ccc(C#N)cc4F)n3)c(F)c2)nc2ccc(C(=O)O)cc21` [Example 3, 2-(4-(6-((4-cyano-2-fluorobenzyl)oxy)pyridin-2-yl)-3-fluorobenzyl)-1-(2-methoxyethyl)-1H-benzo[d]imidazole-6-carboxylic acid] registered an EC50 on GLP-1R (EC50 (nM)) of 10.3 nM. Besides, the “Predicted Hepatic Clearance (Pred. Cl.)” value in series [1] was 3.83 mL/min/kg.
Consider `COCCn1c(Cc2ccc(-c3cccc(OCc4ccc(C#N)cc4F)n3)s2)nc2ccc(C(=O)O)cc21` [Example 4, 2-((5-(6-((4-cyano-2-fluorobenzyl)oxy)pyridin-2-yl)thiophen-2-yl)methyl)-1-(2-methoxyethyl)-1H-benzo[d]imidazole-6-carboxylic acid], for which the EC50 at GLP-1R (setting [2]) stood at 1570 nM. Further, the “Predicted Hepatic Clearance (Pred. Cl.)” value in series [1] was 13.7 mL/min/kg.
Consider `COCCn1c(Cc2ccc(-c3cccc(OCc4ccc(C#N)cc4F)c3)cc2F)nc2ccc(C(=O)O)cc21` [Example 6, 2-((3′-((4-cyano-2-fluorobenzyl)oxy)-3-fluoro-[1,1′-biphenyl]-4-yl)methyl)-1-(2-methoxyethyl)-1H-benzo[d]imidazole-6-carboxylic acid], for which the half-maximal effective concentration (EC50) on GLP-1R (setting [2]) was found to be 56.1 nM. In addition, the “Predicted Hepatic Clearance (Pred. Cl.)” value in series [1] was 3.5 mL/min/kg.
The corresponding values for `N#Cc1ccc(COc2cccc(-c3ccc(Cc4nc5ccc(C(=O)O)cc5n4Cc4cncn4C4CC4)c(F)c3)n2)c(F)c1` [Example 7, 2-(4-(6-((4-cyano-2-fluorobenzyl)oxy)pyridin-2-yl)-2-fluorobenzyl)-1-((1-cyclopropyl-1H-imidazol-5-yl)methyl)-1H-benzo[d]imidazole-6-carboxylic acid] are 6.34 nM and 5.17 mL/min/kg.
For `N#Cc1ccc(COc2cccc(-c3ccc(Cc4nc5ccc(C(=O)O)cc5n4Cc4cncn4C4CC4)c(F)c3)c2)c(F)c1` [Example 8, 2-((3′-((4-cyano-2-fluorobenzyl)oxy)-3-fluoro-[1,1′-biphenyl]-4-yl)methyl)-1-((1-cyclopropyl-1H-imidazol-5-yl)methyl)-1H-benzo[d]imidazole-6-carboxylic acid], the EC50 at GLP-1R (setting [2]) was determined as 26.4 nM. Moreover, the “Predicted Hepatic Clearance (Pred. Cl.)” value in series [1] is 4.33 mL/min/kg.
Regarding `CC1(Cn2c(Cc3ccc(-c4cccc(OCc5ccc(C#N)cc5F)n4)cc3F)nc3ccc(C(=O)O)cc32)CC1` [Example 9, 2-(4-(6-((4-cyano-2-fluorobenzyl)oxy)pyridin-2-yl)-2-fluorobenzyl)-1-((1-methylcyclopropyl)methyl)-1H-benzo[d]imidazole-6-carboxylic acid], on GLP-1R (setting [2]), the EC50 worked out at 1.75 nM. In series [1], the “Predicted Hepatic Clearance (Pred. Cl.)” value is less than 1.83 mL/min/kg.
In the case of `N#Cc1ccc(COc2cccc(-c3ccc(Cc4nc5ccc(C(=O)O)cc5n4CC4(CF)CC4)c(F)c3)n2)c(F)c1` [Example 10, 2-(4-(6-((4-cyano-2-fluorobenzyl)oxy)pyridin-2-yl)-2-fluorobenzyl)-1-((1-(fluoromethyl)cyclopropyl)methyl)-1H-benzo[d]imidazole-6-carboxylic acid], the concentration giving a half-maximal response (EC50) at GLP-1R (setting [2]) was 0.57 nM. Further, the “Predicted Hepatic Clearance (Pred. Cl.)” value in series [1] was 2.83 mL/min/kg.
